Assay results taken from US20220323599A1, “ANTI-BCMA ANTIBODY CONJUGATE, COMPOSITIONS COMPRISING THE SAME, AND METHODS OF MAKING AND USING THE SAME” (CELGENE CORPORATION, priority 2019, published 2022).

System: MM.1S multiple myeloma cells
Assay: Disseminated MM.1S multiple myeloma model in NSG mice
Format: in vivo
From the text: Female NOD severe combined immune deficient (SCID) gamma (NSG) mice 8-9 weeks of age were inoculated with 5×10^6 multiple myeloma MM.1S cells into the tail vein. Randomization by body weight and start of treatment was initiated 7 days post tumor inoculation. The treatment groups are outlined in Table 10. […] Groups 1-10 (n=6/group) were monitored for survival endpoint characterized by >20% body weight loss and clinical signs including lethargy, hind limb paralysis or moribundity. Groups 11-20 (n=3/group) were used for bone marrow harvest and analysis of tumor burden on day 28 post tumor cell inoculation. For all groups, body weights were monitored 1-2×/week.
Tumor burden was assessed and quantified by detection of hCD138 positive (hCD138+) cells in the bone marrow. Bone marrow cells from mouse femur and tibia were pooled and assessed for human CD138+ expression using the Alexa Fluor 647 mouse anti-human CD138 clone MI15 (BD Biosciences #562097) according to the manufacturer's protocol. […] Data was analyzed using Flowjo (Tree Star, Inc., Ashland, Oreg.).
Female NOD severe combined immune deficient (SCID) gamma (NSG) mice 9-12 weeks of age were inoculated with 5×10^6 multiple myeloma MM.1S cells into the tail vein. […] Body weights were monitored 1-2×/week. […]

With “Daratumumab: MM standard of care agent, clinical grade Daratumumab” the “effect on survival compared to vehicle control” value (Example 9, single agent at 3 or 10 mg/kg, single IP) was “no significant effect on survival compared to vehicle control”.

In the case of `CC(C)C[C@H](NC(=O)[C@H](Cc1ccccc1)NC(=O)c1cnccn1)B(O)O` [Velcade, bortezomib], the mean survival (Example 9, 0.8 mg/kg Velcade q7dx2 IP, vehicle 30.6 days) is reported as 40.6 days.
